According to patent publication US5674909A, “Derivatives of 2-amino-1,2,3,4-tetrahydronaphthalene active on the cardiovascular system” (Zambon Group, priority 1994, dated 1997):
Counter-ions that a name gives are not always drawn.

Tests used:
[1] = molecular target: D2 receptor (Rattus norvegicus, UniProt P61169); assay: biochemical; type: binding, rat (Sprague-Dawley); conditions: [3H]-domperidone 0.3 nM, rat striated membranes, 0.01% BSA, 37° C., 30 minutes; read-out: Affinity [K1 (nM)] towards D2 receptor
Sequence of D2 receptor (P61169 whole entry): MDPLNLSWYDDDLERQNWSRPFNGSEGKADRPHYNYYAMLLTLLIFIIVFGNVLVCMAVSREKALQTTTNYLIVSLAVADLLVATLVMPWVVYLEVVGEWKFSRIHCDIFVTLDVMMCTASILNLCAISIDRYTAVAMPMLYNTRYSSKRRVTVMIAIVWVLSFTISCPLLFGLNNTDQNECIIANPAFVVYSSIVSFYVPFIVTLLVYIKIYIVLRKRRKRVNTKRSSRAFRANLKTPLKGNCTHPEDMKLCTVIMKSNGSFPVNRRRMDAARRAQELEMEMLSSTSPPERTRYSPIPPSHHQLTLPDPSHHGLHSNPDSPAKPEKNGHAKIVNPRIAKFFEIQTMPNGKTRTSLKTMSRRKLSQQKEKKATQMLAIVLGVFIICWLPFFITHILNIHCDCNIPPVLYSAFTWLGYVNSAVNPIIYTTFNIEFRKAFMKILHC
Experimental: (§1) The tissue were homogenized in 50 mM Tris/HCl buffer at pH 7.4 (1:100 w/v).
(§2) The homogenate was centrifuged and the pellet resuspended, recentrifuged and resuspended again in 50 mM Tris/HCl buffer at pH 7.4 containing 120 mM NaCl, 5 mM KCl, 2 mM CaCl2 and 1 mM MgCl2.
Furthermore, bovine serum albumine (BSA) (0.01%) was added.
The mixture was incubated at 37° C. for 30 minutes for each concentration of tested compounds.

[2] = molecular target: D1 receptor (Rattus norvegicus, UniProt P18901); assay: biochemical; type: binding, rat (Sprague-Dawley); conditions: [3H]-SCH23390 0.2 nM, rat striated membranes, pH 7.4, 37° C., 20 minutes; read-out: Affinity [K1 (nM)] towards D1 receptor
Sequence of D1 receptor (P18901 whole entry): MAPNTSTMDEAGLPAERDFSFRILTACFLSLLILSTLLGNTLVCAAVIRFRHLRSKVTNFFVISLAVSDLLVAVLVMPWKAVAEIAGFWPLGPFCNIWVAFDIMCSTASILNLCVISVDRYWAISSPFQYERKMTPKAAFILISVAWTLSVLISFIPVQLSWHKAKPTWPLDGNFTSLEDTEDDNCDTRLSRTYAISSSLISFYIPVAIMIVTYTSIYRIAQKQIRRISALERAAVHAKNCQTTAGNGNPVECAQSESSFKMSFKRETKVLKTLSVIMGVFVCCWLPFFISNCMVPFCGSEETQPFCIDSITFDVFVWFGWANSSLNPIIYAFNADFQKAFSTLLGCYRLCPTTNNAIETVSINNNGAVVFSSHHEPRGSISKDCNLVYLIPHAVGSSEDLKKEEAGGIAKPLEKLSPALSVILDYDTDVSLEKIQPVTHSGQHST
Experimental: as §1, §2
The mixture was incubated with different concentrations of the tested compounds at 37° C. for 20 minutes, filtered under vacuum through Whatman GF/C filters and then washed 4 times with 5 ml of 50 mM Tris/HCl buffer (pH 7.4) cooled with ice.

[3] = molecular target: T1, D2 -like (Rabbit Ear Artery) (Oryctolagus cuniculus, UniProt G1T1Q0); assay: D2-like activity in the Rabbit Ear Artery (REA) test; set-up: species or system New Zealand rabbit; conditions: agonist activity at the peak of the effect; electrically stimulated
T1 construct: the central ear artery was dissected into 3 mm long rings; from tissue; host or cells: rabbit central ear artery rings (male New Zealand rabbits), electrically stimulated
T1 sequence (G1T1Q0 1-443): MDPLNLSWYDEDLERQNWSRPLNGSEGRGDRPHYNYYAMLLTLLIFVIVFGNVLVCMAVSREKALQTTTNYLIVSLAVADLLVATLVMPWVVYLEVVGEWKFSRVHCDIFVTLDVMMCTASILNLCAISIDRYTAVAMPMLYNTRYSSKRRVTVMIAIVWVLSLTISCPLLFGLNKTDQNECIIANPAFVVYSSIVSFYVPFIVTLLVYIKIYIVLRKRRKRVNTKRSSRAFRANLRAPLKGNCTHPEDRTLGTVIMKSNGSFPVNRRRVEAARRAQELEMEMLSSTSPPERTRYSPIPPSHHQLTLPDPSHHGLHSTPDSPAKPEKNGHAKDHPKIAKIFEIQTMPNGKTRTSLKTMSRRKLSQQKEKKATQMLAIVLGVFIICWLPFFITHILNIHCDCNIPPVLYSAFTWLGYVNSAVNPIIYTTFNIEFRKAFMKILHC
Experimental: Arterial rings were prepared according to the method described by Steinsland et al., Science, 1978, 443, 199, modified as follows. Male New Zealand rabbits weighing 2.5-3 Kg were sacrificed by intravenous injection of an excess of pentobarbital sodium and exsanguinated. The two ears were taken away and the central ear artery was dissected into 3 mm long rings.
These preparations were set up in a 25 ml organ bath containing Krebs solution (mM/l): NaCl 118, KCl 4.7, CaCl2 2.5, MgSO4 1.2, NaHCO3 25, KH2 PO4 1.2, glucose 11.1, equilibrated with 95% 02 -5% CO2 and maintained at 35°±1° C.
Krebs solution was medicated with EDTA (10 μM) to prevent cathecolamine oxydation, desipramine (0.1 μM) and corticosterone (30 μM), to block neuronal and extraneuronal cathecolamine uptake. The preparations were electrically stimulated (10 Hz, 1 msec, 40-80 mA, 500 msec duration) at 5 minutes intervals.
(§3) The tested compounds were cumulatively administered.
(§4) Ref. A was used as reference substance.
(§5) Agonist activity evaluated at the peak of the effect and expressed as potency ratio (EC50 of Ref. A/EC50 of tested compound) is reported in table 2.

[4] = system: D1 -like (Rabbit Splenic Artery); assay: D1-like activity in the Rabbit Splenic Artery (RSA) test; conditions: agonist activity at the peak of the effect; contracted with U46619 0.1 μM
Experimental: Arterial rings were prepared according to Semeraro et al., Naunyn. Schmied. Arch. Pharmacol., 1990, 342, 539.
The arterial preparations were contracted with U46619 (9,11-di-deoxy-11α,9α-epoxy-methanoprostaglandin F2α) at the submaximal concentration 0.1 μM.
as §3, §4, §5

Row | SMILES | Ki [1] [nM] | Ki [2] [nM] | D2 -like (REA) potency ratio (EC50 of Ref. A/EC50 of tested compound) [3] | D1 -like (RSA) potency ratio (EC50 of Ref. A/EC50 of tested compound) [4]
1 | CCCN(CCCCCCNCC1COc2ccccc2O1)[C@H]1CCc2c(ccc(O)c2O)C1 (stereo partly drawn) [Compound 1, (S)-N-propyl-N-[6-[(1,4-benzodioxan-2-yl)methylamino]hexyl]-5,6-dihydroxy-1,2,3,4-tetrahydro-2-naphthylamine dihydrochloride] | 0.66 | 49 |  | 
2 | CCCN(CCCCCCN1CCN(c2ccccc2OC)CC1)[C@H]1CCc2c(ccc(O)c2O)C1 [Compound 3, (S)-N-propyl-N-[6-[4-(2-methoxyphenyl)piperazin-1-yl]hexyl]-5,6-dihydroxy-1,2,3,4-tetrahydro-2-naphthylamine trihydrochloride] | 0.31 | 69 |  | 
3 | Br.Br.CCCN(CCCCCCNCCc1ccc(O)c(Cl)c1)[C@H]1CCc2c(ccc(O)c2O)C1 [Compound 11, (S)-N-propyl-N-[6-[2-(3-chloro-4-hydroxyphenyl)ethylamino]hexyl]-5,6-dihydroxy-1,2,3,4-tetrahydro-2-naphthylamine dihydrobromide] |  |  | 4 | 25
4 | Br.Br.CCCN(CCCCCCNCCc1ccc(O)c([N+](=O)[O-])c1)[C@H]1CCc2c(ccc(O)c2O)C1 [Compound 12, (S)-N-propyl-N-[6-[2-(3-nitro-4-hydroxyphenyl)ethylamino]hexyl]-5,6-dihydroxy-1,2,3,4-tetrahydro-2-naphthylamine dihydrobromide] |  |  |  | 5
5 | Br.Br.CCCN(CCCCCCNCCc1ccc(O)c(C)c1)[C@H]1CCc2c(ccc(O)c2O)C1 [Compound 14, (S)-N-propyl-N-[6-[2-(3-methyl-4-hydroxyphenyl)ethylamino]hexyl]-5,6-dihydroxy-1,2,3,4-tetrahydro-2-naphthylamine dihydrobromide] |  |  | 3 | 33
6 | Br.Br.CCCN(CCCCCCNCCc1cc(O)c(C)c(O)c1)[C@H]1CCc2c(ccc(O)c2O)C1 [Compound 17, (S)-N-propyl-N-[6-[2-(3,5-dihydroxy-4-methylphenyl)ethylamino]hexyl]-5,6-dihydroxy-1,2,3,4-tetrahydro-2-naphthylamine dihydrobromide] |  |  | 25 | 12
7 | Br.Br.CCCN(CCCCCCNCCc1ccc2[nH]c(=O)sc2c1)[C@H]1CCc2c(ccc(O)c2O)C1 [Compound 18, (S)-N-propyl-N-[6-[2-(2-oxo-3H-1,3-benzothiazol-6-yl)ethylamino]hexyl]-5,6-dihydroxy-1,2,3,4-tetrahydro-2-naphthylamine dihydrobromide] |  |  | 5 | 50
8 | Br.Br.CCCN(CCCCCCNCCc1ccc2sc(=O)[nH]c2c1)[C@H]1CCc2c(ccc(O)c2O)C1 [Compound 19, (S)-N-propyl-N-[6-[2-(2-oxo-3H-1,3-benzothiazol-5-yl)ethylamino]hexyl]-5,6-dihydroxy-1,2,3,4-tetrahydro-2-naphthylamine dihydrobromide] |  |  | 4 | 11
9 | Br.Br.CCCN(CCCCCCNCCc1cc(O)cc(Cl)c1)[C@H]1CCc2c(ccc(O)c2O)C1 [Compound 21, (S)-N-propyl-N-[6-[2-(3-chloro-5-hydroxyphenyl)ethylamino]hexyl]-5,6-dihydroxy-1,2,3,4-tetrahydro-2-naphthylamine dihydrobromide] |  |  | 1.7 | 3
10 | CCCN(CCCCCCNCCc1ccc(O)c(OC)c1)[C@H]1CCc2c(ccc(O)c2O)C1.Cl.Cl [Compound 26, (S)-N-propyl-N-[6-[2-(3-methoxy-4-hydroxyphenyl)ethylamino]hexyl]-5,6-dihydroxy-1,2,3,4-tetrahydro-2-naphthylamine dihydrochloride] |  |  | 10 | 33
11 | CCCN(CCCCCCNCCc1ccc(OC)c(O)c1)[C@H]1CCc2c(ccc(O)c2O)C1.Cl.Cl [Compound 27, (S)-N-propyl-N-[6-[2-(3-hydroxy-4-methoxyphenyl)ethylamino]hexyl]-5,6-dihydroxy-1,2,3,4-tetrahydro-2-naphthylamine dihydrochloride] |  |  | 4 | 25
12 | CCCN(CCCCCCNCCc1ccc(O)c(N)c1)[C@H]1CCc2c(ccc(O)c2O)C1.Cl.Cl.Cl [Compound 29, (S)-N-propyl-N-[6-[2-(3-amino-4-hydroxyphenyl)ethylamino]hexyl]-5,6-dihydroxy-1,2,3,4-tetrahydro-2-naphthylamine trihydrochloride] |  |  | 1.7 | 50
13 | CCCN(CCCCCCNCCc1ccc(NS(C)(=O)=O)cc1)[C@H]1CCc2c(ccc(O)c2O)C1.Cl.Cl [Compound 31, (S)-N-propyl-N-[6-[2-(4-methylsulphonylaminophenyl)ethylamino]hexyl]-5,6-dihydroxy-1,2,3,4-tetrahydro-2-naphthylamine dihydrochloride] |  |  | 5 | 100
14 | CCCN(CCCCCCNCCc1ccc(NC(N)=O)cc1)[C@H]1CCc2c(ccc(O)c2O)C1.Cl.Cl [Compound 32, (S)-N-propyl-N-[6-[2-(4-aminocarbonylaminophenyl)ethylamino]hexyl]-5,6-dihydroxy-1,2,3,4-tetrahydro-2-naphthylamine dihydrochloride] |  |  | 10 | 33
15 | CCCN(CCCCCCNCCc1ccc(NC(C)=O)cc1)[C@H]1CCc2c(ccc(O)c2O)C1.Cl.Cl [Compound 33, (S)-N-propyl-N-[6-[2-(4-acetylaminophenyl)ethylamino]hexyl]-5,6-dihydroxy-1,2,3,4-tetrahydro-2-naphthylamine dihydrochloride] |  |  | 5 | 5
16 | CCCN(CCCCCCNCCc1ccc(C(=O)OC)cc1)[C@H]1CCc2c(ccc(O)c2O)C1.Cl.Cl [Compound 35, (S)-N-propyl-N-[6-[2-(4-methoxycarbonylphenyl)ethylamino]hexyl]-5,6-dihydroxy-1,2,3,4-tetrahydro-2-naphthylamine dihydrochloride] |  |  | 0.4 | 2
17 | CCCN(CCCCCCNCCc1ccc(CO)cc1)[C@H]1CCc2c(ccc(O)c2O)C1.Cl.Cl [Compound 36, (S)-N-propyl-N-[6-[2-(4-hydroxymethylphenyl)ethylamino]hexyl]-5,6-dihydroxy-1,2,3,4-tetrahydro-2-naphthylamine dihydrochloride] |  |  | 12 | 4.5
18 | CCCN(CCCCCCNCCc1ccc(C(N)=O)cc1)[C@H]1CCc2c(ccc(O)c2O)C1.Cl.Cl [Compound 37, (S)-N-propyl-N-[6-[2-(4-carbamoylphenyl)ethylamino]hexyl]-5,6-dihydroxy-1,2,3,4-tetrahydro-2-naphthylamine dihydrochloride] |  |  | 5 | 5
19 | CCCN(CCCCCCNCCc1ccc(S(=O)(=O)O)cc1)[C@H]1CCc2c(ccc(O)c2O)C1.Cl.Cl [Compound 39, (S)-N-propyl-N-[6-[2-(4-sulphophenyl)ethylamino]hexyl]-5,6-dihydroxy-1,2,3,4-tetrahydro-2-naphthylamine dihydrochloride] |  |  | 3 | 2.5
20 | CCCN(CCCCCCNCCc1ccc2nc(N)sc2c1)[C@H]1CCc2c(ccc(O)c2O)C1.Cl.Cl.Cl [Compound 40, (S)-N-propyl-N-[6-[2-(2-amino-1,3-benzothiazol-6-yl)ethylamino]hexyl]-5,6-dihydroxy-1,2,3,4-tetrahydro-2-naphthylamine trihydrochloride] |  |  | 3 | 14
